# Data from US10524472B2, “Elicitor peptides having disrupted hypersensitive response box and use thereof” (Plant Health Care, Inc., priority 2014, dated 2020).
# Marks after values point to notes of the source that are not given here.
# Columns and labels:
# Assay type in all cases: in vivo
# [1] = system: Soy plants; test: Growth tests after foliar spray, soy; conditions: for growth, dry biomass and fresh mass (text summary of Table 21): foliar spray; for Dry biomass increase (%) / Fresh mass increase (%) / Growth increase (%): soy, 14 days
# Protocol: Soy seeds (or corn seeds, as indicated) were planted in flats with 2 seeds per cell within the flat at a greenhouse facility. The seeds were allowed to germinate and the smaller plant is culled, leaving one plant per cell. Once the first true leaves are fully expanded and the second leaves are beginning to expand, the plants were initially measured for height. This was performed by stretching the highest leaf upward and measuring the distance to the soil. Peptides were dissolved in water at the indicated concentrations (Table 21 below). The plants were then treated with a foliar spray using widely available spray bottles until liquid was dripping from the leaves. Six flats of 14 plants each were treated per condition (peptide or control). Designated untreated control plants were sprayed with water. The plants were allowed to grow for 14 days. The height of the plants was again measured and compared to the original height to quantify growth. Finally, the plants were harvested by removing the shoots (all above-ground material). For some experiments, this was weighed upon harvesting to determine the fresh mass (including water weight). The shoots were then dried at 70° C. for 72 hours, and again weighed to determine dry biomass. Although this method uses a similar measure (growth) as in Example 3 above, the treatment method is different (seed soak vs. foliar spray). As a result, the experimental outcomes may diverge.
# [2] = system: soybean seeds; test: Root & shoot growth analysis after seed soak, soy; conditions: for Root (root growth index, percentage increase over untreated control) / Shoot (shoot length, percentage increase over untreated control): soy, 12-14 days
# Protocol: Peptides were tested for biological effects on the allocation of growth resources to the shoot (above ground) and root (below ground). Peptides were dissolved at 0.2, 2, or 5 μg/ml in a total volume of 100 ml deionized water. Corn or soybean seeds were then soaked for one hour in the peptide solution. Untreated control (UTC) plants were soaked in deionized water. Clear plastic 300 ml beverage cups (Solo®, Dart Container Corporation) were prepared for planting by marking the bottom with a cross, dividing the bottom into four equal quadrants. The cups were then filled with Sunshine Mix #1 soil (SunGro Horticulture) sieved to ¼″. 100 ml of water was added to the soil. Treated seeds were then planted by pressing the seed lightly into the top of the soil. The seeds were then covered with an additional 50 ml of loose soil. Seeds were allowed to germinate and grow for 12-14 days.
# The length of the shoot was measured as the distance from the soil to the lightly stretched tip of the highest leaf for each plant. […] Stunting was defined as lacking a fully expanded true leaf at time of data collection or having an expanded true leaf judged by eye to be <½ the average leaf area of the treatment group. Generally, 30 seeds were planted per treatment group and 15-25 plants were used for data collection.
# Root growth was estimated by counting the number of times that a primary root crosses the quadrant marks on the bottom of the cup. These were often observed along the bottom circumference of the cup, although some were visible along the side of the container and were counted as if crossing a vertical extension of the quadrant line. This number was divided by 4 to produce a root growth index.
# Each number indicates the percentage increase over the untreated control values.
# [3] = system: tobacco mosaic virus (TMV); test: Induction of resistance to tobacco mosaic virus in tobacco; conditions: for TMV response / effectiveness against TMV infection (summary of Table 22): foliar spray; for Effectiveness Covered (%) (decline in TMV lesions vs UTC, systemic response) / Effectiveness Uncovered (%) (decline in TMV lesions vs UTC, local response): TMV 3 days post-treatment, scored 3 days after inoculation
substance,measurement,setting,value
ANNQDPMQALMQLLEDLV (P14a),"growth, dry biomass and fresh mass (text summary of Table 21)",[1],increases for all 3 measures
same,"growth, dry biomass and fresh mass (text summary of Table 21)",[1]; listed as p14a,increases in growth and dry biomass
same,Dry biomass increase (%),[1]; foliar spray 0.2 ug/ml,12.6%
same,Fresh mass increase (%),[1]; foliar spray 0.2 ug/ml,46.8%
same,Growth increase (%),[1]; foliar spray 0.2 ug/ml,14.7%
same,Dry biomass increase (%),[1]; foliar spray 2.0 ug/ml,11.0%
same,Fresh mass increase (%),[1]; foliar spray 2.0 ug/ml,57.9%
same,Growth increase (%),[1]; foliar spray 2.0 ug/ml,3.4%
same,Dry biomass increase (%),[1]; foliar spray 5.0 ug/ml,10.6%
same,Fresh mass increase (%),[1]; foliar spray 5.0 ug/ml,83.3%
same,Growth increase (%),[1]; foliar spray 5.0 ug/ml,8.9%
same,root growth (text summary of Table 20),[2]; seed soak,Increased root growth
same,shoot growth (Table 20),"[2]; seed soak, p14a soy at 0.2 μg/ml",increased shoot growth
same,"Root (root growth index, percentage increase over untreated control)",[2]; seed soak 0.2 μg/ml,−2.7%
same,"Shoot (shoot length, percentage increase over untreated control)",[2]; seed soak 0.2 μg/ml,8.7%*
same,"Root (root growth index, percentage increase over untreated control)",[2]; seed soak 5.0 μg/ml,10.3%*
same,"Shoot (shoot length, percentage increase over untreated control)",[2]; seed soak 5.0 μg/ml,−3.5%
QAGPQSANKTGNVDDANNQDPMQALMQLL (P14-dc4),"growth, dry biomass and fresh mass (text summary of Table 21)",[1],"lose the significant growth, dry biomass, and fresh mass benefits"
same,Dry biomass increase (%),[1]; foliar spray 0.2 ug/ml,5.6%
same,Fresh mass increase (%),[1]; foliar spray 0.2 ug/ml,7.5%
same,Growth increase (%),[1]; foliar spray 0.2 ug/ml,2.6%
same,Dry biomass increase (%),[1]; foliar spray 2.0 ug/ml,−1.6%
same,Fresh mass increase (%),[1]; foliar spray 2.0 ug/ml,0.4%
same,Growth increase (%),[1]; foliar spray 2.0 ug/ml,−4.6%
same,Dry biomass increase (%),[1]; foliar spray 5.0 ug/ml,−7.6%
same,Fresh mass increase (%),[1]; foliar spray 5.0 ug/ml,−15.4%
same,Growth increase (%),[1]; foliar spray 5.0 ug/ml,−17%
same,TMV response / effectiveness against TMV infection (summary of Table 22),[3],reduced effectiveness against TMV infection
same,"Effectiveness Covered (%) (decline in TMV lesions vs UTC, systemic response)",[3]; spray 10 ug/ml,19%
same,"Effectiveness Uncovered (%) (decline in TMV lesions vs UTC, local response)",[3]; spray 10 ug/ml,34%
SEEEEELEQLLEDLVKLL (P14-32),"growth, dry biomass and fresh mass (text summary of Table 21)",[1],increases in growth and dry biomass
same,Dry biomass increase (%),[1]; foliar spray 0.2 ug/ml,6.8%
same,Fresh mass increase (%),[1]; foliar spray 0.2 ug/ml,2.9%
same,Growth increase (%),[1]; foliar spray 0.2 ug/ml,9.5%
same,Dry biomass increase (%),[1]; foliar spray 2.0 ug/ml,8.2%
same,Fresh mass increase (%),[1]; foliar spray 2.0 ug/ml,27.6%
same,Growth increase (%),[1]; foliar spray 2.0 ug/ml,1.7%
same,Dry biomass increase (%),[1]; foliar spray 5.0 ug/ml,14%
same,Fresh mass increase (%),[1]; foliar spray 5.0 ug/ml,33.3%
same,Growth increase (%),[1]; foliar spray 5.0 ug/ml,12.5%
same,"Effectiveness Covered (%) (decline in TMV lesions vs UTC, systemic response)",[3]; spray 20 ug/ml,82* %
same,"Effectiveness Uncovered (%) (decline in TMV lesions vs UTC, local response)",[3]; spray 20 ug/ml,90* %
SEEEEELQQLLKLFSEILQ (P3-10),"Effectiveness Covered (%) (decline in TMV lesions vs UTC, systemic response)",[3]; spray 20 ug/ml,95* %
same,"Effectiveness Uncovered (%) (decline in TMV lesions vs UTC, local response)",[3]; spray 20 ug/ml,94* %
SEEEEELTGVLQKLLK_ILE (SEEEEELTGVLQKLLKILE; P25-12),"Effectiveness Covered (%) (decline in TMV lesions vs UTC, systemic response)",[3]; spray 20 ug/ml,58%
same,"Effectiveness Uncovered (%) (decline in TMV lesions vs UTC, local response)",[3]; spray 20 ug/ml,77* %
SEEEEELTGVLQKLSKILEAL (P25min-15S),"Effectiveness Covered (%) (decline in TMV lesions vs UTC, systemic response)",[3]; spray 20 ug/ml,74* %
same,"Effectiveness Uncovered (%) (decline in TMV lesions vs UTC, local response)",[3]; spray 20 ug/ml,81* %
SEEEEELTLTGVLQKLLKIL (P25-14),TMV response / effectiveness against TMV infection (summary of Table 22),[3],weaker control of TMV infection
same,"Effectiveness Covered (%) (decline in TMV lesions vs UTC, systemic response)",[3]; spray 20 ug/ml,−87%
same,"Effectiveness Uncovered (%) (decline in TMV lesions vs UTC, local response)",[3]; spray 20 ug/ml,52%
SEEEELDQLLSQLI (P4-115),"Effectiveness Covered (%) (decline in TMV lesions vs UTC, systemic response)",[3]; spray 20 ug/ml,87* %
same,"Effectiveness Uncovered (%) (decline in TMV lesions vs UTC, local response)",[3]; spray 20 ug/ml,87* %
SEEEELDQLLTQLI (P1-31),TMV response / effectiveness against TMV infection (summary of Table 22),[3],anti-TMV activity
same,"Effectiveness Covered (%) (decline in TMV lesions vs UTC, systemic response)",[3]; spray 20 ug/ml,88* %
same,"Effectiveness Uncovered (%) (decline in TMV lesions vs UTC, local response)",[3]; spray 20 ug/ml,95* %
"SQGISEKQLADQLLASQLIAQALLQP (P4-i10A,14A,18A)","Effectiveness Covered (%) (decline in TMV lesions vs UTC, systemic response)",[3]; spray 10 ug/ml,69%
same,"Effectiveness Uncovered (%) (decline in TMV lesions vs UTC, local response)",[3]; spray 10 ug/ml,75%
SQGISEKQLADQLLSQLIQALLQP (P4-i10A),"Effectiveness Covered (%) (decline in TMV lesions vs UTC, systemic response)",[3]; spray 10 ug/ml,81%
same,"Effectiveness Uncovered (%) (decline in TMV lesions vs UTC, local response)",[3]; spray 10 ug/ml,92%
SQGISEKQLDQDLSQLIQALLQP (P4-14S-12D),Dry biomass increase (%),[1]; foliar spray 5.0 ug/ml,−3.6%
same,Growth increase (%),[1]; foliar spray 5.0 ug/ml,−4.2%
same,TMV response / effectiveness against TMV infection (summary of Table 22),[3],produced the best results
same,"Effectiveness Covered (%) (decline in TMV lesions vs UTC, systemic response)",[3]; spray 5.0 ug/ml,60* %
same,"Effectiveness Uncovered (%) (decline in TMV lesions vs UTC, local response)",[3]; spray 5.0 ug/ml,61* %
